Reference: ChEMBL document CHEMBL1146662, “Novel inhibitors of bacterial protein synthesis: structure-activity relationships for 1,8-naphthyridine derivatives incorporating position 3 and 4 variants” (Bioorg Med Chem Lett, 2004)
pIC50: −log10 of the molar value. ≈ marks a conversion by molar mass, not a printed value.

tested on: Streptococcus pneumoniae; assay: Antibacterial activity against Quinolone-resistant Streptococcus pneumoniae 7257; assay type: functional

Row | SMILES | MIC [µg/mL]
1 | O=C(O)c1cnc2nc(N3CCCC3)c(F)cc2c1O | 4 (≈ 14.4 µM)
2 | NC1CCN(c2nc3ncc(C(=O)O)c(O)c3cc2F)C1 (configuration not stated) | 32 (≈ 109 µM)

biological target: not listed separately; assay: Inhibitory concentration against luciferase synthesis in Streptococcus pneumoniae; assay type: functional

Row | SMILES | pIC50
3 | OCc1cnc2nc(N3CCCC3)c(F)cc2c1O | < 4.00
4 | NC(=O)CNc1ccnc2nc(N3CCCC3)c(F)cc12 | 4.09
5 | NNc1ccnc2nc(N3CCCC3)c(F)cc12 | 4.05
6 | CCOC(=O)c1cnc2nc(N3CCC(N)C3)c(F)cc2c1O (configuration not stated) | 4.70
7 | CN(C)CCN(C)c1ccnc2nc(N3CCCC3)c(F)cc12 | 4.74
8 | NC(=O)c1cnc2nc(N3CCC(N)C3)c(F)cc2c1O (configuration not stated) | 4.64
9 | O=Cc1cnc2nc(N3CCCC3)c(F)cc2c1O | < 4.00
10 | CN(C)CCNCc1cnc2nc(N3CCCC3)c(F)cc2c1O | < 4.00
11 | CC(=O)c1cnc2nc(N3CCC(N)C3)c(F)cc2c1O (configuration not stated) | 4.30
12 | NCCNc1ccnc2nc(N3CCCC3)c(F)cc12 | 4.96
13 | CC(C)CCN(C)C(=O)c1cnc2nc(N3CCC(N)C3)c(F)cc2c1O (configuration not stated) | < 4.00
14 | O=C(O)c1cnc2nc(N3CCCC3)c(F)cc2c1O | 5.00
15 | CCCNc1ccnc2nc(N3CCCC3)c(F)cc12 | 4.72
16 | CCOC(=O)c1cnc2nc(N3CCCC3)c(F)cc2c1O | < 4.00
17 | NC1CCN(c2nc3ncc(CNCCCc4ccccc4)c(O)c3cc2F)C1 (configuration not stated) | 5.00
18 | Oc1c(CNc2ccccc2)cnc2nc(N3CCCC3)c(F)cc12 | < 4.00
19 | NC1CCN(c2nc3ncc(C(=O)O)c(O)c3cc2F)C1 (configuration not stated) | 5.30
20 | CC(C)NC(=O)c1cnc2nc(N3CCC(N)C3)c(F)cc2c1O (configuration not stated) | < 4.00
21 | CC(Nc1ccnc2nc(N3CCCC3)c(F)cc12)c1ccccc1 (configuration not stated) | < 4.00
22 | CCN(CC)CCCNCc1cnc2nc(N3CCC(N)C3)c(F)cc2c1O (configuration not stated) | 5.00
23 | Oc1ccnc2nc(N3CCCC3)c(F)cc12 | < 4.00
24 | COCCNc1ccnc2nc(N3CCCC3)c(F)cc12 | 4.41
25 | NC1CCN(c2nc3ncc(CNc4ccccc4)c(O)c3cc2F)C1 (configuration not stated) | 4.27
26 | Oc1c(CNCc2ccccc2)cnc2nc(N3CCCC3)c(F)cc12 | < 4.00
27 | O=C(NO)c1cnc2nc(N3CCCC3)c(F)cc2c1O | < 4.00
28 | NC1CCN(c2nc3ncc(CNCc4ccccc4)c(O)c3cc2F)C1 (configuration not stated) | 4.60
29 | Fc1cc2c(N3CCNCC3)ccnc2nc1N1CCCC1 | < 4.00
30 | O=C(O)CNc1ccnc2nc(N3CCCC3)c(F)cc12 | < 4.00
31 | CC(C)CCNC(=O)c1cnc2nc(N3CCC(N)C3)c(F)cc2c1O (configuration not stated) | 4.60
32 | OCCNc1ccnc2nc(N3CCCC3)c(F)cc12 | 4.04

tested on: Escherichia coli; assay: Antibacterial activity against Escherichia coli; assay type: functional

Row | SMILES | MIC [µg/mL]
33 | NCCNc1ccnc2nc(N3CCCC3)c(F)cc12 | > 128

tested on: Escherichia coli; assay: Antibacterial activity against Escherichia coli in presence of permeabilizer and EDTA; assay type: functional

Row | SMILES | MIC [µg/mL]
34 | NCCNc1ccnc2nc(N3CCCC3)c(F)cc12 | 32

tested on: Haemophilus influenzae; assay: Antibacterial activity against Haemophilus influenzae GYR 1435; assay type: functional

Row | SMILES | MIC [µg/mL]
35 | O=C(O)c1cnc2nc(N3CCCC3)c(F)cc2c1O | 1 (≈ 3.61 µM)
36 | NC1CCN(c2nc3ncc(C(=O)O)c(O)c3cc2F)C1 (configuration not stated) | 4 (≈ 13.7 µM)
37 | C[C@H]1COc2c(N3CCN(C)CC3)c(F)cc3c(=O)c(C(=O)O)cn1c23.C[C@H]1COc2c(N3CCN(C)CC3)c(F)cc3c(=O)c(C(=O)O)cn1c23.O [LEVOFLOXACIN] | 0.015
